“Also recorded” adds a separate entry of the source.
Key:
Type in all cases: cell-based
[1] = molecular target: T1, TRPV1 (Homo sapiens, UniProt Q8NER1); experiment: In vitro Fluo8-NW calcium assay (FLIPR) on HEK293T cells stably overexpressing TRPV1; conditions: for TRPV1 screening result: single dose, qualitative
T1 construct: expressed in transfected cells
From the text: (§1) Pure phytochemicals were submitted to in vitro assays with a platform of twenty cloned receptors of the bitter taste TAS2R family and four receptors of the TRP family related to the perception of taste and somatosensory sensations. All experiments have been repeated three times, each time with four replicates. […] For simplicity, only those bitter taste receptors having reproducible positive assay, namely TASR10, 14 and 49, are reported (Table 1).
(§2) For the biological tests, several compounds were purchased as references from different suppliers (Sigma Aldrich, ChromaDex, Irvine, CA, USA, and Tocris Bioscience, Bristol, UK) and dissolved in assay buffer (130 mM NaCl, 5 mM KCl, 1 mM MgCl2, 2 mM CaCl2, 5 mM NaHCO3 and 20 mM HEPES, pH 7.4) or in a mixture of assay buffer and DMSO, never exceeding a final DMSO concentration of 0.5% (v/v) to avoid toxic effects and possible artefacts on transfected cells.
(§3) All human TAS2R and G15Gi1 cDNAs were produced as reported in Bassoli et al. cDNAs for human TRPA1-M5-M8-V1-V4 were cloned into a pcDNA6 expression vector (Invitrogen-Thermo Fisher, Waltham, MA, USA).
(§4) All experiments were performed using HEK293T cells (ATCC).
(§5) For TRP platform experiments, cells were cultured in MEM/EBSS medium (ECB2071L EuroClone, Milan, Italy) plus 10% (v/v) fetal bovine serum (FBS) (26400-044 Gibco, Karlsruhe, Germany) and 1% (v/v) Pen/Strep 10K/10K stock (17-602E Lonza, Basel, Switzerland). Stable cell lines were generated overexpressing each TRP channel, and clones were selected with 500 µg/mL of G418 (ant-gn-5 Invivogen, Karlsruhe, Germany). To analyze TRP receptor responses, cells were plated at a concentration of 20,000 cells/well in 384-well plates (GR-4330 Twin Helix srl, Milan, Italy). Cellular responses were measured 24 h after seeding.
For TRPA1-M8-V1-V4 experiments, a solution of Fluo8-NW calcium-sensitive dye (36316 AAT BioQuest, Sunnyvale, CA, USA) was prepared using the assaybuffer and diluting the kit components 1:2 according to the manufacturer’s instructions. Twenty-four hours after seeding, cells were incubated one hour at RT, loaded with 40 µL of Fluo8-NW solution for each well and incubated again for one hour at RT before data acquisition.
(§6) For TRPM5 experiments, cells were loaded 24 h after seeding with a Membrane Potential Dye (R8034 MDC) solution in assay buffer according to the manufacturer’s instructions and incubated at 37 °C for 1 h before acquisition. All experiments were performed using a fluorometric imaging plate reader (FLIPR^TETRA, Molecular Devices equipped with ICCD Camera from Stanford Photonics, INC, (Palo Alto, CA, USA) and kinetics were visualized with Molecular Devices’ Screenworks 3.0 (Sunnyvale, CA, USA).
(§7) For the calculation of concentration-response curves, responses were calculated as the difference between maximal and minimal relative fluorescence unit (RFU) values in a selected time window (11–60 s) and were normalized to the basal well fluorescence (Time Point 1, before compound injection) in order to compensate for differences in cell density (∆F/F0). All of the experiments have been repeated three times, each time with four replicates. All of the results are averages of at least four replicates. Raw data are available in Supplementary Material, Figures S3–S6.

[2] = molecular target: T2, TRPM5 (Homo sapiens, UniProt Q9NZQ8); experiment: In vitro membrane potential dye assay (FLIPR) on HEK293T cells stably overexpressing TRPM5; conditions: for TRPM5 screening result: single dose, qualitative
T2 construct: expressed in transfected cells
T2 sequence (Q9NZQ8 1-1165): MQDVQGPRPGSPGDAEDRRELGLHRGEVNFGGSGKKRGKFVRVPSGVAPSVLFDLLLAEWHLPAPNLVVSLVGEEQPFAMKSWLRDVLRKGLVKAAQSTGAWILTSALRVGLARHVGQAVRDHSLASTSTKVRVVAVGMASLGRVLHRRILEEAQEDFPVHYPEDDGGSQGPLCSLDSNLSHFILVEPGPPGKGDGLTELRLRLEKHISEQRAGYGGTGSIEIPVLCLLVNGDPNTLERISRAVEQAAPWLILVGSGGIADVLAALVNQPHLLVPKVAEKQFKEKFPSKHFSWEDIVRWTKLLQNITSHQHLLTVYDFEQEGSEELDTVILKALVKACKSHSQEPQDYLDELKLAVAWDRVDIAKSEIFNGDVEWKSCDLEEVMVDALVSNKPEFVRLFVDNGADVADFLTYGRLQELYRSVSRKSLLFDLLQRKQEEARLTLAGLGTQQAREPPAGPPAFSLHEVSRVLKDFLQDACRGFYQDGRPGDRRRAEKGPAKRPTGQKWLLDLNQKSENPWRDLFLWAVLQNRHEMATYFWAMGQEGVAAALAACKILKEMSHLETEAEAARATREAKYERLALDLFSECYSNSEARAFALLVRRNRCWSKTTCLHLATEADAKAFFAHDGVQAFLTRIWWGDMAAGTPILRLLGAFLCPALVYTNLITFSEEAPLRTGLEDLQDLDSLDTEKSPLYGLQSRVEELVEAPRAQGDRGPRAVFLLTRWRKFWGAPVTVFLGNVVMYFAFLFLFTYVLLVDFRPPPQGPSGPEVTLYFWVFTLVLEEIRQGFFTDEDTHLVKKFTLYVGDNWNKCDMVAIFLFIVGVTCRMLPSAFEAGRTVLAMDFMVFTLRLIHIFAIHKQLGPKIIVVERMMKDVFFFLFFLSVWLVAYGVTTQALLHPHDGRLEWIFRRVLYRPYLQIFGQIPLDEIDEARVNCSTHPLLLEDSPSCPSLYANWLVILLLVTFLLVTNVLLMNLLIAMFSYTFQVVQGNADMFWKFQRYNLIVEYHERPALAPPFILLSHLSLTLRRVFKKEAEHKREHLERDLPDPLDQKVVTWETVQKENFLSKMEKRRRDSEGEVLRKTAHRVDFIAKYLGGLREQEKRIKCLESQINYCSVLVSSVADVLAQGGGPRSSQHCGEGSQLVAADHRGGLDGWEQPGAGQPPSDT
From the text: as §1
(§8) For those compounds showing activity on one or more receptor(s), the concentration/response curves were plotted and the EC50 calculated.
as §2, §3, §4, §5, §6, §7

[3] = molecular target: T3, TAS2R49 (Homo sapiens, UniProt P59543); experiment: In vitro calcium imaging assay on cloned TAS2R49 in transfected HEK293T cells; conditions: for TAS2R49 screening result: single dose, qualitative
T3 construct: expressed in transfected cells; host or cells: HEK293T
T3 sequence (P59543 1-309): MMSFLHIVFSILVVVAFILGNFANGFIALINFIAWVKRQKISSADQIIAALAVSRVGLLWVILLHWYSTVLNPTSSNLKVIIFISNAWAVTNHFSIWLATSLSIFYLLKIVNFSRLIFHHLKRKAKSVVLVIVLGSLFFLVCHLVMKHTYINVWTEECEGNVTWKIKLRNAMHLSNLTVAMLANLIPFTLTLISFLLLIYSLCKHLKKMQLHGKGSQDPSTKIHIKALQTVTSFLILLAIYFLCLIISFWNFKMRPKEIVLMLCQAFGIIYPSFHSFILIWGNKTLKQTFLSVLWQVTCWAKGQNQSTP
From the text: as §1, §8, §2, §3, §4
For the bitter platform experiments, cells were cultured, transfected and analyzed as previously described.
For the bitter platform experiments, data analyses were performed as previously described.
as §7

T1 sequence (Q8NER1 whole entry): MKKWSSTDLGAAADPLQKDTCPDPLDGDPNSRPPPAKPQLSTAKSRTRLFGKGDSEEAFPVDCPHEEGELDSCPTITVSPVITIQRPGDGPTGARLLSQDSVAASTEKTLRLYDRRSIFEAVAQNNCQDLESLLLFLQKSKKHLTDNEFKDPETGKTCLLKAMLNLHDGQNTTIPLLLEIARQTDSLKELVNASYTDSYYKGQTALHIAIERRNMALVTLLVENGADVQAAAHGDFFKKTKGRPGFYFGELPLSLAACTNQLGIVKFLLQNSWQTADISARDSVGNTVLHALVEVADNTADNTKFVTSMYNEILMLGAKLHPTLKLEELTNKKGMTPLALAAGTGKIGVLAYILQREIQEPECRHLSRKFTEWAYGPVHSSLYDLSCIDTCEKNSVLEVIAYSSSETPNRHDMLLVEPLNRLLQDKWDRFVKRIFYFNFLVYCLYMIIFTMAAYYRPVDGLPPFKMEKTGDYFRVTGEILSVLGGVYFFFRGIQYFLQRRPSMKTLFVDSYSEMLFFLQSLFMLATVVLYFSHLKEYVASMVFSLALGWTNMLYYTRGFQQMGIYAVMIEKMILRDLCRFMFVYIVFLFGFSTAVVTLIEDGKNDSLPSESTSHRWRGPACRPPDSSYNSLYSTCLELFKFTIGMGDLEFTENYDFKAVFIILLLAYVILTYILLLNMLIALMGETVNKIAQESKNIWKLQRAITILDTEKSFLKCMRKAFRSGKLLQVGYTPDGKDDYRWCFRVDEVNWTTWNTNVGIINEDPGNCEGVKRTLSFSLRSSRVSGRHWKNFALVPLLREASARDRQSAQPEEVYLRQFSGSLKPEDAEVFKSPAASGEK

SMILES	TRPV1 screening result [1]	TRPM5 screening result [2]	Activity on TAS2R49 (in words) [3]	EC50 [3]	TAS2R49 screening result [3]	Activity on TRPV1 (in words) [1]	Activity on TRPM5 (in words) [2]	EC50 ([2]; concentration/response curve, values with ≥ estimated)
COc1c2occc2cc2ccc(=O)oc12 [Compound 4, xanthotoxin]	−	−	responded; also recorded: able to activate	12 µM	++			
COc1c2ccoc2c(OC)c2oc(=O)ccc12 [Compound 5, isopimpinellin]	−	−			−			
CCCCCCCCCC(C)=O [Compound 9, 2-undecanone]	−	−			−			
COc1ccc2c(OC)c3ccoc3nc2c1OC [Compound 8, skimmianine]	−	−			−			
CCCCCCCC(C)=O [Compound 10, 2-nonanone]	−	−			−			
C[C@@H]1O[C@@H](OC[C@H]2O[C@@H](Oc3c(-c4ccc(O)c(O)c4)oc4cc(O)cc(O)c4c3=O)[C@H](O)[C@@H](O)[C@@H]2O)[C@H](O)[C@H](O)[C@H]1O [Compound 1, rutin]	−	−			−			
COc1cc2nc3occc3c(OC)c2cc1OC [Compound 7, kokusaginin]	−	−			−			
C=CC(C)(C)c1cc2cc3c(cc2oc1=O)OC(C(C)(C)OC(C)=O)C3 (centres unmarked) [Compound 2, rutamarin]	+	+			−	agonist	activated	≥ 26.7 µM
COc1c2ccoc2cc2oc(=O)ccc12 [Compound 3, bergapten]	−	−			−			

Reference: paper PMC6331789, “Phytochemicals from Ruta graveolens Activate TAS2R Bitter Taste Receptors and TRP Channels Involved in Gustation and Nociception” (Molecules, 2015)
